Reference: PubChem BioAssay AID1794807 (Yongcheng Song lab at Baylor College of Medicine, 2022)
The source made the active and inactive calls.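 The calls were made as follows: active = half-maximal effective concentration EC50 under 50 µM in the live-cell XTT test; inactive = the rest.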

System: MV4;11 AML cells, XTT viability
Experiment: MV4,11 leukemia cell growth inhibition, dose response, XTT absorbance (AID 1794807)

SMILES	EC50
O=C(NCC1CCNCC1)c1cc2cc(-c3ccc(N4CCCCC4)cc3)ccc2[nH]1	22 µM
O=C(NCC1CCNCC1)c1c[nH]c2cc(-c3ccc(N4CCCCC4)cc3)ccc12	33 µM
O=C(NCC1CCNCC1)c1cc2ccc(-c3ccc(N4CCCC4)cc3)cc2s1	8.7 µM
O=C(NCC1CCNCC1)c1cc2ccc(-c3ccc(N4CCCCC4)cc3)cc2s1	9.6 µM
O=C(NCC1CCNCC1)c1cc2cc(-c3cn[nH]c3)ccc2[nH]1	> 50 µM (inactive)

Now from value to compound:

EC50	SMILES
21 µM	O=C(NCC1CCNCC1)c1coc2cc(-c3ccc(N4CCCCC4)cc3)ccc12
8.2 µM	O=C(NCC1CCNCC1)c1cc2cc(-c3ccc(N4CCCCC4)cc3)ccc2s1
50 µM (inactive)	NCc1ccc(-c2ccc3cc(C(=O)NCC4CCNCC4)oc3c2)cc1
26 µM	O=C(NCC1CCNCC1)c1c[nH]c2cc(-c3ccc(N4CCCC4)cc3)ccc12
> 50 µM (inactive)	NC(=O)c1ccc(-c2ccc3cc(C(=O)NCC4CCNCC4)sc3c2)cc1
